Test results taken from patent US10703765B2 (priority 2014, dated 2020).
Counter-ions that a name gives are not always drawn. Like-named read-outs stand apart in the source and are kept apart here.

Molecular target: human σ1 receptor (Homo sapiens, UniProt Q99720)
Experiment: biochemical
Assay type: binding
Parameters: μ and σ1 dual binding: key to the marks not given beside the values
[1] = read-out: μ and σ1 dual binding

Chain of human σ1 receptor (Q99720 whole entry): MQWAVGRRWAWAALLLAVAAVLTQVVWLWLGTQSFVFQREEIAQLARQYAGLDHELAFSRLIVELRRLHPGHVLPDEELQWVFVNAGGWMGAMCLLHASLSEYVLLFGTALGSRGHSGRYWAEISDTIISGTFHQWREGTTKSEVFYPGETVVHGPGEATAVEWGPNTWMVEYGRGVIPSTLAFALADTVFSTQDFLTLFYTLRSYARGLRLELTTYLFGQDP

| Structure (SMILES) | Ki [1] [nM] | Ki [nM] | other results |
| --- | --- | --- | --- |
| Cc1cc(C)n(CCN2CCC3(CC2)CN(c2ccccc2)C(=O)C(C)O3)n1.Cl (stereo not drawn) [Example 77, 9-(2-(3,5-dimethyl-1H-pyrazol-1-yl)ethyl)-2-methyl-4-phenyl-1-oxa-4,9-diazaspiro[5.5]undecan-3-one hydrochloride] |  |  | μ and σ1 dual binding: ++ |
| CC1OC2(CCN(CC(=O)N3CCOCC3)CC2)CN(c2ccccc2)C1=O (stereo not drawn) [Example 78, 2-methyl-9-(2-morpholino-2-oxoethyl)-4-phenyl-1-oxa-4,9-diazaspiro[5.5]undecan-3-one hydrochloride] | > 500 |  |  |
| COc1ccccc1CCN1CCC2(CC1)CN(Cc1ccccn1)C(=O)CO2 [Example 79, 9-(2-methoxyphenethyl)-4-(pyridin-2-ylmethyl)-1-oxa-4,9-diazaspiro[5.5]undecan-3-one] | < 500 |  |  |
| O=C1C(=CC2CCOCC2)OC2(CCN(CCc3ccccc3)CC2)CN1c1ccccc1F [Example 80, 4-(2-fluorophenyl)-9-phenethyl-2-((tetrahydro-2H-pyran-4-yl)methylene)-1-oxa-4,9-diazaspiro[5.5]undecan-3-one] |  | < 500 |  |
| CC(C)CCN1CCC2(CC1)CN(c1ccccc1F)C(=O)C(C)O2.Cl (stereo not drawn) [Example 81, 4-(2-fluorophenyl)-9-isopentyl-2-methyl-1-oxa-4,9-diazaspiro[5.5]undecan-3-one hydrochloride] |  |  | μ and σ1 dual binding: ++ |
| CC1OC2(CCN(CC3CC3)CC2)CN(c2ccccc2F)C1=O (stereo not drawn) [Example 82, 9-(cyclopropylmethyl)-4-(2-fluorophenyl)-2-methyl-1-oxa-4,9-diazaspiro[5.5]undecan-3-one hydrochloride] | > 500 |  |  |
| COc1cccc(CCN2CCC3(CC2)CN(c2ccccc2F)C(=O)C(C)O3)c1 (stereo not drawn) [Example 83, 4-(2-fluorophenyl)-9-(3-methoxyphenethyl)-2-methyl-1-oxa-4,9-diazaspiro[5.5]undecan-3-one hydrochloride] |  | < 100 |  |
| O=C1COC2(CCN(CCc3ccccn3)CC2)CN1Cc1ccccn1 [Example 84, 9-(2-(pyridin-2-yl)ethyl)-4-(pyridin-2-ylmethyl)-1-oxa-4,9-diazaspiro[5.5]undecan-3-one] |  |  | μ and σ1 dual binding (combined class from Ki-σ1 (human σ1 receptor, A1) and Ki-μ (human μ-opioid receptor, A2) radioligand binding): ++ |
| CC(C)=C1OC2(CCN(CCc3ccccc3)CC2)CN(c2ccccc2F)C1=O [Example 85, 4-(2-fluorophenyl)-9-phenethyl-2-(propan-2-ylidene)-1-oxa-4,9-diazaspiro[5.5]undecan-3-one] | > 500 |  |  |
| O=C1COC2(CCN(CCc3ccccc3)CC2)CN1Cc1ccccn1 [Example 86, 9-phenethyl-4-(pyridin-2-ylmethyl)-1-oxa-4,9-diazaspiro[5.5]undecan-3-one hydrochloride] | < 100 |  |  |
| COc1ccccc1CCN1CCC2(CC1)CN(Cc1ccccc1)CCO2 [Example 87, 4-benzyl-9-(2-methoxyphenethyl)-1-oxa-4,9-diazaspiro[5.5]undecane dihydrochloride] | > 500 |  |  |
| CC1OC2(CCN(CCc3ccccc3)CC2)CN(c2cscn2)C1=O (stereo not drawn) [Example 88, 2-methyl-9-phenethyl-4-(thiazol-4-yl)-1-oxa-4,9-diazaspiro[5.5]undecan-3-one hydrochloride] |  | < 500 |  |
| CC1OC2(CCN(CCc3cccc(F)n3)CC2)CN(c2ccccc2F)C1=O (stereo not drawn) [Example 89, 4-(2-fluorophenyl)-9-(2-(6-fluoropyridin-2-yl)ethyl)-2-methyl-1-oxa-4,9-diazaspiro[5.5]undecan-3-one hydrochloride] |  | < 500 |  |
| O=C1N(c2ccccc2)CC2(CCN(CCc3ccccn3)CC2)OC12CC2 [Example 90, 12-phenyl-8-[2-(pyridin-2-yl)ethyl]-4-oxa-8,12-diazaspiro[2.1.5.3]tridecan-13-one] | < 100 |  |  |
| CC1OC2(CCN(CCc3ccc(C(F)(F)F)nc3)CC2)CN(c2ccccc2F)C1=O (stereo not drawn) [Example 91, 4-(2-fluorophenyl)-2-methyl-9-(2-(6-(trifluoromethyl)pyridin-3-yl)ethyl)-1-oxa-4,9-diazaspiro[5.5]undecan-3-one dihydrochloride] | < 500 |  |  |
| O=C1N(c2ccccc2)CC2(CCN(CCc3cccc([N+](=O)[O-])c3)CC2)OC12CC2 [Example 92, 8-(3-nitrophenethyl)-12-phenyl-4-oxa-8,12-diazaspiro[2.1.5.3]tridecan-13-one] | > 500 |  |  |
| CNS(=O)(=O)c1cccc(CCN2CCC3(CC2)CN(c2ccccc2)C(=O)C(C)O3)c1 (stereo not drawn) [Example 93, N-methyl-3-(2-(2-methyl-3-oxo-4-phenyl-1-oxa-4,9-diazaspiro[5.5]undecan-9-yl)ethyl)benzenesulfonamide] |  | < 500 |  |
| CC1OC2(CCN(CCc3ccc(F)cn3)CC2)CN(c2ccccc2)C1=O (stereo not drawn) [Example 94, 9-(2-(5-fluoropyridin-2-yl)ethyl)-2-methyl-4-phenyl-1-oxa-4,9-diazaspiro[5.5]undecan-3-one hydrochloride] |  | < 500 |  |
| CC1OC2(CCN(CCc3nccs3)CC2)CN(c2ccccc2)C1=O (stereo not drawn) [Example 95, 2-methyl-4-phenyl-9-(2-(thiazol-2-yl)ethyl)-1-oxa-4,9-diazaspiro[5.5]undecan-3-one hydrochloride] |  | < 500 |  |
| CC1OC2(CCN(CCc3ncccc3F)CC2)CN(c2ccccc2)C1=O (stereo not drawn) [Example 96, 9-(2-(3-fluoropyridin-2-yl)ethyl)-2-methyl-4-phenyl-1-oxa-4,9-diazaspiro[5.5]undecan-3-one hydrochloride] |  | < 500 |  |
| O=C(CN1CCC2(CC1)CN(c1ccccc1)C(=O)C1(CC1)O2)c1ccccc1 [Example 97, 8-(2-oxo-2-phenylethyl)-12-phenyl-4-oxa-8,12-diazadispiro[2.1.5.3]tridecan-13-one] | > 500 |  |  |
| O=C1COC2(CCN(CCc3ccccn3)CC2)CN1Cc1ccc(C(F)(F)F)cn1 [Example 98, 9-(2-(pyridin-2-yl)ethyl)-4-((5-(trifluoromethyl)pyridin-2-yl)methyl)-1-oxa-4,9-diazaspiro[5.5]undecan-3-one hydrochloride] | < 500 |  |  |
| O=C(CN1CCC2(CC1)CN(Cc1ccc(C(F)(F)F)cn1)C(=O)CO2)c1ccccc1 [Example 99, 9-(2-oxo-2-phenylethyl)-4-((5-(trifluoromethyl)pyridin-2-yl)methyl)-1-oxa-4,9-diazaspiro[5.5]undecan-3-one] | > 500 |  |  |
| CC1OC2(CCN(CCC(=O)N(C)c3ccccc3)CC2)CN(c2ccccc2)C1=O (stereo not drawn) [Example 100, N-methyl-3-(2-methyl-3-oxo-4-phenyl-1-oxa-4,9-diazaspiro[5.5]undecan-9-yl)-N-phenylpropanamide hydrochloride] | < 500 |  |  |
| CC1OC2(CCN(CCc3ccccn3)CC2)CN(c2cnccc2C(F)(F)F)C1=O.Cl (stereo not drawn) [Example 101, 2-methyl-9-(2-(pyridin-2-yl)ethyl)-4-(4-(trifluoromethyl)pyridin-3-yl)-1-oxa-4,9-diazaspiro[5.5]undecan-3-one hydrochloride] |  |  | μ and σ1 dual binding: ++ |
| COc1cccc(CCN2CCC3(CC2)CN(c2ccccc2)C(=O)C(C)O3)n1 (stereo not drawn) [Example 102, 9-(2-(6-methoxypyridin-2-yl)ethyl)-2-methyl-4-phenyl-1-oxa-4,9-diazaspiro[5.5]undecan-3-one hydrochloride] |  | < 500 |  |
| O=C1COC2(CCN(CCc3cccc([N+](=O)[O-])c3)CC2)CN1Cc1ccc(C(F)(F)F)cn1 [Example 103, 9-(3-nitrophenethyl)-4-((5-(trifluoromethyl)pyridin-2-yl)methyl)-1-oxa-4,9-diazaspiro[5.5]undecan-3-one] | > 500 |  |  |
